Reference: PubChem BioAssay AID210 (DTP/NCI, 2004)
Values joined by “and” are separate entries in the source; they are usually repeats but may differ in a detail not shown here. Identical values can stand only once. Toxic doses and inconclusive results are not listed.

Tested on: CD2F1 mice, ip Colon 26 adenocarcinoma, median survival T/C
Test: NCI In Vivo Anticancer Drug Screen. Data for tumor model Colon 26 Adenocarcinoma (intraperitoneal) in CD2F1 (CDF1) mice
Conditions: endpoint: median survival time, higher = longer survival
Protocol: The antitumor activity of compounds was measured in mice bearing transplantable tumors. Survival or tumor size were measured and the results are expressed as the measurement made in the treated group (T) divided by the measurement made in the vehicle treated control group (C). The tumor model used in this assay is Colon 26 Adenocarcinoma (intraperitoneal) in CD2F1 (CDF1) mice

[1] = dose: 12.5 mg/kg/injection, schedule: Q04DX003 (ip), vehicle: Klucel (hydroxypropylcellulose) (HPC)
[2] = dose: 25.0 mg/kg/injection, schedule: Q04DX003 (ip), vehicle: Klucel (hydroxypropylcellulose) (HPC)

In the case of `C/C(=C\c1ccccc1)[N+](=O)[O-]`, the T/C (dose: 3.12 mg/kg/injection, schedule: Q04DX003 (ip), vehicle: Klucel (hydroxypropylcellulose) (HPC)) is reported as 91 % of control, the T/C (dose: 6.25 mg/kg/injection, schedule: Q04DX003 (ip), vehicle: Klucel (hydroxypropylcellulose) (HPC)) is reported as 97 % of control and the T/C [1] is reported as 96 % of control. For the same compound, the T/C [2] was 90 % of control.
`O=P1(NCCCl)OCCCN1CCCl` (stereo not given) was tested, and the T/C (dose: 12.5 mg/kg/injection, schedule: Q04DX003 (ip), vehicle: water) was 106 % of control, the T/C (dose: 25.0 mg/kg/injection, schedule: Q04DX003 (ip), vehicle: water) was 113 % of control and the T/C (dose: 200.0 mg/kg/injection, schedule: Q04DX003 (ip), vehicle: water) was 188 % of control.
For `NC(Cc1ccc(N(CCCl)CCCl)cc1)C(=O)O` (stereo not given), the T/C (dose: 2.0 mg/kg/injection, schedule: Q04DX002 (ip), vehicle: Klucel (hydroxypropylcellulose) (HPC)) was 168 % of control, the T/C (dose: 4.0 mg/kg/injection, schedule: Q04DX002 (ip), vehicle: Klucel (hydroxypropylcellulose) (HPC)) was 253 % of control and the T/C (dose: 8.0 mg/kg/injection, schedule: Q04DX002 (ip), vehicle: Klucel (hydroxypropylcellulose) (HPC)) was 245 % of control. For the same compound, the T/C (dose: 16.0 mg/kg/injection, schedule: Q04DX002 (ip), vehicle: Klucel (hydroxypropylcellulose) (HPC)) was 156 % of control.
`C1CN(P2(N3CC3)=NP(N3CC3)(N3CC3)=NP(N3CC3)(N3CC3)=N2)CCO1` (stereo not given) was tested, and the T/C (dose: 6.25 mg/kg/injection, schedule: Q04DX003 (ip), vehicle: saline) was 92 % of control, the T/C (dose: 12.5 mg/kg/injection, schedule: Q04DX003 (ip), vehicle: saline) was 121 % of control and the T/C (dose: 50.0 mg/kg/injection, schedule: Q04DX003 (ip), vehicle: saline) was 163 % of control.
For `CC(CN1CC(=O)NC(=O)C1)N1CC(=O)NC(=O)C1` (stereo not given), the T/C [1] was 100 % of control, the T/C [2] was 98 % of control and the T/C (dose: 50.0 mg/kg/injection, schedule: Q04DX003 (ip), vehicle: Klucel (hydroxypropylcellulose) (HPC)) was 102 % of control.
In the case of `CN(C)C=O`, the T/C (dose: 100.0 mg/kg/injection, schedule: Q04DX002 (ip), vehicle: saline) is reported as 93 % of control, the T/C (dose: 400.0 mg/kg/injection, schedule: Q04DX002 (ip), vehicle: saline) is reported as 90 % of control and the T/C (dose: 800.0 mg/kg/injection, schedule: Q04DX002 (ip), vehicle: saline) is reported as 168 % of control. For the same compound, the T/C (dose: 1600.0 mg/kg/injection, schedule: Q04DX002 (ip), vehicle: saline) was 93 % of control.
In the case of `COc1cccc2c1C(=O)c1c(O)c3c(c(O)c1C2=O)CC(O)(C(=O)CO)CC3OC1CC(N)C(O)C(C)O1` (stereo not given), the T/C (dose: 1.13 mg/kg/injection, schedule: Q04DX003 (ip), vehicle: water) is reported as 107 % of control, the T/C (dose: 2.25 mg/kg/injection, schedule: Q04DX003 (ip), vehicle: water) is reported as 99 % of control and 113 % of control and the T/C (dose: 4.5 mg/kg/injection, schedule: Q04DX003 (ip), vehicle: water) is reported as 113 % of control. For the same compound, the T/C (dose: 9.0 mg/kg/injection, schedule: Q04DX003 (ip), vehicle: water) was 116 % of control and 117 % of control, the T/C (dose: 18.0 mg/kg/injection, schedule: Q04DX003 (ip), vehicle: water) was 117 % of control and the T/C (dose: 36.0 mg/kg/injection, schedule: Q04DX003 (ip), vehicle: water) was 111 % of control. For the same compound, the T/C (dose: 55.0 mg/kg/injection, schedule: Q07DX002 (iv), vehicle: saline) was 107 % of control, the T/C (dose: 74.0 mg/kg/injection, schedule: Q07DX002 (iv), vehicle: saline) was 112 % of control and the T/C (dose: 190.0 mg/kg/injection, schedule: Q07DX002 (iv), vehicle: saline) was 124 % of control.
With `CCOC(=O)C1C2OC(=O)C(C(=O)C2CN(CCCl)CCCl)C1C1CC=C(CC2=CCC(C3C4C(=O)OC(C(CN(CCCl)CCCl)C4=O)C3C(=O)OCC)CC2)CC1` (stereo not given) the T/C (dose: 100.0 mg/kg/injection, schedule: Q04DX003 (ip), vehicle: Klucel (hydroxypropylcellulose) (HPC)) was 216 % of control and the T/C (dose: 200.0 mg/kg/injection, schedule: Q04DX003 (ip), vehicle: Klucel (hydroxypropylcellulose) (HPC)) was 232 % of control.
For `COc1cccc2c1C(=N)c1c(O)c3c(c(O)c1C2=O)C[C@@](O)(C(C)=O)C[C@@H]3OC1CC(N)C(O)C(C)O1` (stereo not given in full), the T/C (dose: 3.46 mg/kg/injection, schedule: Q04DX003 (ip), vehicle: water) was 119 % of control, the T/C (dose: 5.76 mg/kg/injection, schedule: Q04DX003 (ip), vehicle: water) was 119 % of control and the T/C (dose: 9.6 mg/kg/injection, schedule: Q04DX003 (ip), vehicle: water) was 94 % of control.
